Laboratory results published in ChEMBL document CHEMBL1201862, “PubChem BioAssay data set” (2004).
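Where inhibition never reached the appropriate level, the endpoint shown equals the highest concentration tested. Otherwise, values were interpolated linearly from a five-concentration, 48-hour dose response in 96-well plates. Abbreviation: GI50, concentration required for 50% inhibition of growth.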 Active and inactive are the calls of the source. Cut-off read from the data, not from the text of the source: active = GI50 up to about 1.1 µM and inactive = higher.

How the values were obtained:
Experiment in all cases: inhibition of tumour cell growth, NCI panel, 48 h
ACHN = tested on: ACHN
DMS-114 = tested on: DMS-114
EKVX = tested on: EKVX
HL-60 = tested on: HL-60
HOP-62 = tested on: HOP-62
HOP-92 = tested on: HOP-92
IGROV-1 = tested on: IGROV-1
M14 = tested on: M14
NCI-H522 = tested on: NCI-H522
OVCAR-8 = tested on: OVCAR-8
RXF 393 = tested on: RXF 393
SK-MEL-5 = tested on: SK-MEL-5
SK-OV-3 = tested on: SK-OV-3
SN12C = tested on: SN12C
TK-10 = tested on: TK-10
UO-31 = tested on: UO-31
K562 = tested on: K562
LOX IMVI = tested on: LOX IMVI
MDA-N = tested on: MDA-N
NCI/ADR-RES = tested on: NCI/ADR-RES

Compound	GI50 (ACHN)	GI50 (DMS-114)	GI50 (EKVX)	GI50 (HL-60)	GI50 (HOP-62)	GI50 (HOP-92)	GI50 (IGROV-1)	GI50 (M14)	GI50 (NCI-H522)	GI50 (OVCAR-8)	GI50 (RXF 393)	GI50 (SK-MEL-5)	GI50 (SK-OV-3)	GI50 (SN12C)	GI50 (TK-10)	GI50 (UO-31)	GI50 (K562)	GI50 (LOX IMVI)	GI50 (MDA-N)	GI50 (NCI/ADR-RES)
CCN1CCC(O)(/C=C/c2ccccc2)C(C(=O)/C=C/c2ccccc2)C1 (stereo not drawn)	1.72 µM (inactive)	2.08 µM (inactive)	3.33 µM (inactive)	1.64 µM (inactive)	13.9 µM (inactive)	2.64 µM (inactive)	1.85 µM (inactive)	2.09 µM (inactive)	1.73 µM (inactive)	1.89 µM (inactive)	1.67 µM (inactive)	3.22 µM (inactive)	7.85 µM (inactive)	1.79 µM (inactive)	2.61 µM (inactive)	10.1 µM (inactive)	–	–	–	–
O=C(Nc1ccccc1SC(/C=C/NNC1=NN=C(c2ccccc2)C(c2ccccc2)N1)c1ccccc1)c1ccc(Cl)cc1Cl (stereo not drawn)	82.8 µM (inactive)	45.1 µM (inactive)	37.8 µM (inactive)	35.6 µM (inactive)	27.3 µM (inactive)	–	50 µM (inactive)	–	> 100 µM (inactive)	74.5 µM (inactive)	40.7 µM (inactive)	42.8 µM (inactive)	49.3 µM (inactive)	32.6 µM (inactive)	> 100 µM (inactive)	34 µM (inactive)	60.1 µM (inactive)	36.2 µM (inactive)	–	–
COC(=O)C1C(=O)O[C@@H](c2ccc(OC)cc2OC)C1C(=O)OC (stereo partly drawn)	> 100 µM (inactive)	> 100 µM (inactive)	> 100 µM (inactive)	> 100 µM (inactive)	> 100 µM (inactive)	> 100 µM (inactive)	> 100 µM (inactive)	> 100 µM (inactive)	–	> 100 µM (inactive)	> 100 µM (inactive)	> 100 µM (inactive)	> 100 µM (inactive)	> 100 µM (inactive)	> 100 µM (inactive)	> 100 µM (inactive)	> 100 µM (inactive)	> 100 µM (inactive)	–	–
Cc1cc(NS(=O)(=O)c2ccc(Nc3c4ccccc4nc4c(C(=O)NCCN(C)C)cccc34)cc2)no1	3.71 µM (inactive)	0.713 µM (active)	5.09 µM (inactive)	0.152 µM (active)	2.09 µM (inactive)	–	2.37 µM (inactive)	5.08 µM (inactive)	0.813 µM (active)	4.18 µM (inactive)	5.6 µM (inactive)	2.49 µM (inactive)	–	3.01 µM (inactive)	35.1 µM (inactive)	–	2.69 µM (inactive)	1.35 µM (inactive)	–	–
Cc1ccccc1-c1c(N)nc(NC#N)nc1C(=O)Nc1ccccc1	> 100 µM (inactive)	> 100 µM (inactive)	> 100 µM (inactive)	–	> 100 µM (inactive)	42.9 µM (inactive)	> 100 µM (inactive)	> 100 µM (inactive)	–	–	> 100 µM (inactive)	> 100 µM (inactive)	> 100 µM (inactive)	99.8 µM (inactive)	> 100 µM (inactive)	> 100 µM (inactive)	> 100 µM (inactive)	> 100 µM (inactive)	–	–
CCc1c(-c2coc(CC/C(C)=C/c3ccccc3)n2)oc(OC)c(C)c1=O	22.5 µM (inactive)	< 0.01 µM (active)	25.4 µM (inactive)	5.13 µM (inactive)	> 40 µM (inactive)	34.6 µM (inactive)	> 83.8 µM (inactive)	34.8 µM (inactive)	0.209 µM (active)	19.9 µM (inactive)	–	4.12 µM (inactive)	32.7 µM (inactive)	> 42.1 µM (inactive)	> 100 µM (inactive)	5.35 µM (inactive)	0.122 µM (active)	15.1 µM (inactive)	–	–
Cc1ccc(C2[C@H]3C(=O)N(c4ccc(Cc5ccc(N6C(=O)[C@@H]7ON(c8ccccc8)C(c8ccc(C)cc8)[C@@H]7C6=O)cc5)cc4)C(=O)[C@H]3ON2c2ccccc2)cc1 (stereo partly drawn)	> 100 µM (inactive)	> 100 µM (inactive)	–	> 100 µM (inactive)	> 100 µM (inactive)	> 100 µM (inactive)	> 100 µM (inactive)	91.6 µM (inactive)	–	–	> 100 µM (inactive)	> 100 µM (inactive)	> 100 µM (inactive)	> 100 µM (inactive)	–	> 100 µM (inactive)	> 100 µM (inactive)	> 100 µM (inactive)	–	–
CC1C=C[C@H](Sc2ccccc2)CC[C@@]1(C)O (stereo partly drawn)	> 100 µM (inactive)	55.8 µM (inactive)	> 100 µM (inactive)	33.6 µM (inactive)	> 100 µM (inactive)	40.5 µM (inactive)	> 100 µM (inactive)	> 100 µM (inactive)	–	> 100 µM (inactive)	76.2 µM (inactive)	59.4 µM (inactive)	> 100 µM (inactive)	> 100 µM (inactive)	> 100 µM (inactive)	30.1 µM (inactive)	67.5 µM (inactive)	> 100 µM (inactive)	–	–
Cc1ccc(S(=O)(=O)NC2(C=O)CCCC3CCCCC32)cc1 (stereo not drawn)	> 100 µM (inactive)	> 100 µM (inactive)	–	> 100 µM (inactive)	> 100 µM (inactive)	–	> 100 µM (inactive)	> 100 µM (inactive)	> 100 µM (inactive)	> 100 µM (inactive)	> 100 µM (inactive)	> 100 µM (inactive)	> 100 µM (inactive)	> 100 µM (inactive)	> 100 µM (inactive)	> 100 µM (inactive)	> 100 µM (inactive)	–	–	–
COC(=O)c1ccc2n[se]nc2c1	> 100 µM (inactive)	> 100 µM (inactive)	71 µM (inactive)	> 100 µM (inactive)	> 100 µM (inactive)	–	> 100 µM (inactive)	> 100 µM (inactive)	> 100 µM (inactive)	> 100 µM (inactive)	> 100 µM (inactive)	> 100 µM (inactive)	> 100 µM (inactive)	> 100 µM (inactive)	> 100 µM (inactive)	> 100 µM (inactive)	> 100 µM (inactive)	> 100 µM (inactive)	–	–
CC(=O)O[C@]12CCCCC1C1(O)C(O)CCCC[C@H]12 (stereo partly drawn)	> 100 µM (inactive)	> 100 µM (inactive)	> 100 µM (inactive)	> 100 µM (inactive)	> 100 µM (inactive)	–	–	> 100 µM (inactive)	> 100 µM (inactive)	> 100 µM (inactive)	> 100 µM (inactive)	> 100 µM (inactive)	> 100 µM (inactive)	> 100 µM (inactive)	> 100 µM (inactive)	> 100 µM (inactive)	> 100 µM (inactive)	> 100 µM (inactive)	–	–
CCOc1ccc2c(c1)[n+]([O-])c(-c1nc3ccccc3s1)c(N)[n+]2[O-]	55.1 µM (inactive)	44.1 µM (inactive)	53.1 µM (inactive)	31.2 µM (inactive)	88.7 µM (inactive)	26.2 µM (inactive)	75.9 µM (inactive)	60.7 µM (inactive)	21.6 µM (inactive)	75.2 µM (inactive)	–	30.3 µM (inactive)	> 100 µM (inactive)	82.6 µM (inactive)	> 100 µM (inactive)	31.3 µM (inactive)	61.9 µM (inactive)	64 µM (inactive)	–	–
COc1ccc(NC(=O)CC(=O)N/N=C/c2ccc(N(CCC#N)S(C)(=O)=O)cc2)cc1	> 100 µM (inactive)	> 100 µM (inactive)	> 100 µM (inactive)	–	> 100 µM (inactive)	–	> 100 µM (inactive)	> 100 µM (inactive)	> 100 µM (inactive)	> 100 µM (inactive)	> 100 µM (inactive)	> 100 µM (inactive)	> 100 µM (inactive)	> 100 µM (inactive)	> 100 µM (inactive)	> 100 µM (inactive)	> 100 µM (inactive)	> 100 µM (inactive)	–	–
Cc1cc(C)c2c(=O)n(CN3CCN(c4ccccc4)CC3)sc2n1	20.1 µM (inactive)	–	29.8 µM (inactive)	9.71 µM (inactive)	34.1 µM (inactive)	> 100 µM (inactive)	> 100 µM (inactive)	24.5 µM (inactive)	14.4 µM (inactive)	35.4 µM (inactive)	12.6 µM (inactive)	28.3 µM (inactive)	> 100 µM (inactive)	27 µM (inactive)	49.5 µM (inactive)	21.6 µM (inactive)	30 µM (inactive)	20.7 µM (inactive)	23.7 µM (inactive)	24.2 µM (inactive)
CCOC(=O)/C(=C/c1ccc(N(C)C)cc1)N(CC)CC	76.2 µM (inactive)	54 µM (inactive)	35.2 µM (inactive)	27.2 µM (inactive)	> 100 µM (inactive)	> 100 µM (inactive)	> 100 µM (inactive)	> 100 µM (inactive)	34.3 µM (inactive)	> 100 µM (inactive)	–	> 10 µM (inactive)	> 100 µM (inactive)	84.7 µM (inactive)	> 100 µM (inactive)	68.5 µM (inactive)	22.5 µM (inactive)	27.7 µM (inactive)	–	–
CCC(C)C1NC(=O)C(NC(=O)C(CC(C)C)N(C)C(=O)[C@@H]2CC(O)CN2C(=O)[C@H](C)O)C(C)OC(=O)[C@H](Cc2ccc(OC)cc2)N(C)C(=O)[C@@H]2CCCN2C(=O)[C@H](CC(C)C)NC(=O)C(C)C(=O)[C@H](C(C)C)OC(=O)CC1O (stereo partly drawn)	0.351 µM (active)	–	0.0201 µM (active)	0.417 µM (active)	0.25 µM (active)	0.255 µM (active)	0.181 µM (active)	0.0935 µM (active)	0.15 µM (active)	0.406 µM (active)	0.0638 µM (active)	0.0359 µM (active)	0.179 µM (active)	0.147 µM (active)	0.676 µM (active)	1.44 µM (inactive)	0.29 µM (active)	0.138 µM (active)	0.133 µM (active)	6.84 µM (inactive)
